Columns and labels:
Format in all cases: biochemical
SmtB = biological target: T1, SmtB (Synechococcus elongatus, UniProt P30340); test: SmtB-regulated in vitro transcription with TMSD fluorescence output; details: SmtB-regulated reaction, optimized smtO-Hairpin2-InvadeR design
T1 construct: 6xHis (C); made in house; host or cells: E. coli Rosetta 2(DE3)pLysS, pET-28c plasmid (pJBL725)
T1 sequence (P30340 with tags, fused parts or gaps): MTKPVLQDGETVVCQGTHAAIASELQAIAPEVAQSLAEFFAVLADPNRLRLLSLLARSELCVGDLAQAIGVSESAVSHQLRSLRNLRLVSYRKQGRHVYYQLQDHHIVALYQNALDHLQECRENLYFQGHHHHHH
Experimental: (§1) In addition to TetR, we chose TtgR [44] and SmtB [45] as representative aTFs of the MarR family and SmtB/ArsR family, respectively. We placed the cognate operator sequence of each aTF 2-bp downstream of the T7 promoter and immediately upstream of the InvadeR sequences (FIG. 4a-c). When tetracycline was used to induce TetR-regulated reactions, we observed a strong and robust fluorescent signal visible in ˜10 minutes (FIG. 4d, FIG. 13a). […] We note that we observed a slight decrease in the induction speed from the TtgR-regulated reactions compared to that of the TetR-regulated reactions, likely due to the reduced ttgO DNA template concentration needed to accommodate TtgR's relatively weak binding affinity to its operator sequence.
We were immediately successful in adapting the system to TetR and TtgR (FIG. 4a, b). […]
(§2) Regulated IVT reactions additionally included a purified aTF at the indicated concentration and were equilibrated at 37° C. for ˜10 minutes. Immediately prior to plate reader measurements, 2 ng of T7 RNAP and, optionally, a ligand at the indicated concentration were added to the reaction. Reactions were then characterized on a plate reader as described in Plate reader quantification and micromolar equivalent fluorescein (MEF) standardization.

TetR = biological target: T2, TetR (Escherichia coli, UniProt P04483)
T2 construct: made in house; host or cells: E. coli Rosetta 2(DE3)pLysS, pET-28c plasmid (pJBL701)
Excerpt: Next, we sought to determine whether the transcription of InvadeR can be regulated with an aTF, thus creating a ligand-responsive biosensor that uses TMSD outputs. This required us to insert an aTF operator sequence in between the T7 promotor and InvadeR sequence to allow an aTF to regulate transcription. […] To test if this spacing remained important in the TMSD platform, we used TetR as our model aTF to determine the optimum spacing for efficient repression in the presence of TetR and efficient transcription in the absence of TetR [41]. […] However, robust fluorescence signal was observed without TetR when using a 2-bp spacer, which was reduced to nearly baseline levels when regulated by TetR. […]
Using the 2-bp spacer, we next determined whether TetR can be de-repressed with its cognate ligand, anhydrotetracycline (aTc) to allow transcription of InvadeR (FIG. 3c). […]
as §2

TtgR = biological target: T3, TtgR (Pseudomonas putida, UniProt Q88N29); test: TtgR-regulated in vitro transcription with TMSD fluorescence output; details: TtgR-regulated reactions, with and without ligand
T3 construct: made in house; host or cells: E. coli Rosetta 2(DE3)pLysS, pET-28c plasmid (pJBL721)
T3 sequence (Q88N29 other isoform, or with tags, fused parts or gaps): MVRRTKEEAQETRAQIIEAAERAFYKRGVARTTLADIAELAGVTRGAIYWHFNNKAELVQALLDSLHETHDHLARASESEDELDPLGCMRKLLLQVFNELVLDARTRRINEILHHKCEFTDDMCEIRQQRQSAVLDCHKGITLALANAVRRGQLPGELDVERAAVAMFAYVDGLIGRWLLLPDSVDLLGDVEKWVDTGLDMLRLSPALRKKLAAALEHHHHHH
Experimental: as §1, §2

In the case of `O=S(=O)([O-])[O-].[Zn+2]` [ZnSO4], the “fluorescence activation by ligand” value (SmtB) is reported as “clear activation of a SmtB-regulated reaction in the presence of ZnSO4 with low background signal”.
With `Cc1c2c(c(O)c3c(O)cccc13)C(=O)[C@]1(O)C(=O)C(C(N)=O)=C(O)[C@@H](N(C)C)[C@@H]1C2` [aTc, anhydrotetracycline] the “time until fluorescence is visible” value (TetR; TetR-regulated InvadeR output induced with the ligand (aTc 10 μM)) was about 10 min and the “speed of fluorescence activation relative to the RNA aptamer platform” value (TetR; equimolar amounts of DNA template, TetR and aTc) was “approximately 5 times”.
`O=C1C[C@@H](c2ccc(O)cc2)Oc2cc(O)cc(O)c21` [naringenin] was tested, and the “fluorescence activation by ligand” value (TtgR) was “robust fluorescence activation only in the presence of the ligand”.
